pKi: −log10 of the molar value.
Assays:
[1] = target: Sigma intracellular receptor 2 (Cavia porcellus); assay: Binding affinity for Sigma opioid receptor type 2 in guinea pig brain homogenate with 4 nM [3H]-(+)-DTG
[2] = Binding affinity for Sigma opioid receptor type 1 in guinea pig brain homogenate with 0.5 nM [3H](+)-PENT

| pKi [1] | pKi [2] | Compound |
| --- | --- | --- |
| 7.60 | 7.66 | O=C1NC(c2ccccc2)(c2ccccc2)C(=O)N1CCCN1CCC(c2ccccc2)CC1 [5,5-Diphenyl-3-[3-(4-phenyl-piperidin-1-yl)-propyl]-imidazolidine-2,4-dione] |
| 7.37 | 7.77 | O=C1NC(c2ccccc2)(c2ccccc2)C(=O)N1CCN1CCC(c2ccccc2)CC1 [5,5-Diphenyl-3-[2-(4-phenyl-piperidin-1-yl)-ethyl]-imidazolidine-2,4-dione] |
| 7.31 | 6.48 | O=C1NC(c2ccccc2)(c2ccccc2)C(=O)N1CCCCN1CCN(c2ccccc2)CC1 [5,5-Diphenyl-3-[4-(4-phenyl-piperazin-1-yl)-butyl]-imidazolidine-2,4-dione] |
| 7.72 | 7.72 | O=C1NC(c2ccccc2)(c2ccccc2)C(=O)N1CCCCCN1CCN(c2ccccc2)CC1 [5,5-Diphenyl-3-[5-(4-phenyl-piperazin-1-yl)-pentyl]-imidazolidine-2,4-dione] |
